Test results taken from patent US20240116985A1, “STAPLED PEPTIDES AND METHODS THEREOF” (priority 2020, published 2024).

Experiments:
[1] = target: T1, beta-catenin/TCF4 engagement (Homo sapiens, UniProt P35222); test: Nano-BRET target engagement assay (B-cat-Halo & TCF4-Luc in HEK293 cells); format: cell-based; conditions: absolute IC50; read-out: NanoBRET Abs IC50
T1 construct: expressed in transfected cells; host or cells: HEK293
T1 sequence (P35222 1-781): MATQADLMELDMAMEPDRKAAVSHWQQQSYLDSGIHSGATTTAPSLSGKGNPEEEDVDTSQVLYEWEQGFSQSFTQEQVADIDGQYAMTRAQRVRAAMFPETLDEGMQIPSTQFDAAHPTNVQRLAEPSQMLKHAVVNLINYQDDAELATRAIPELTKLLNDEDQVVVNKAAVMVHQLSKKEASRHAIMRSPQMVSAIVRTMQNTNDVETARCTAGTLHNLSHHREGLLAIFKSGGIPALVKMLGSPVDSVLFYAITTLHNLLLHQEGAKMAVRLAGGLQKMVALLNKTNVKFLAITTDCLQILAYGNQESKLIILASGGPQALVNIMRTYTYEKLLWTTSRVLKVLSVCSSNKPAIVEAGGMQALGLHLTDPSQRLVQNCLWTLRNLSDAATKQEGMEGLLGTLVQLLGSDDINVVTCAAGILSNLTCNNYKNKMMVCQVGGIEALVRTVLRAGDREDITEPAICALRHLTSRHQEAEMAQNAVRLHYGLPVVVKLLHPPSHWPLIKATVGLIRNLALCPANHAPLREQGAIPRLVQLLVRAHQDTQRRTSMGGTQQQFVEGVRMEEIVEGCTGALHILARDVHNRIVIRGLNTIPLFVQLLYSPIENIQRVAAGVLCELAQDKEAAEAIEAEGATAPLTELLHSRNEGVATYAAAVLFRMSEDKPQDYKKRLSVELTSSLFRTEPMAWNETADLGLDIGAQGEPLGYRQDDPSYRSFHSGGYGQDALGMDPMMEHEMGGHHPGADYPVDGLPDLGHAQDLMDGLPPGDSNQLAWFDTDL

[2] = target: T2, full-length beta-Catenin (Uniprot ID P35222) (Homo sapiens, UniProt P35222); test: Fluorescence polarization IC50 (beta-catenin / 5FAM-TCF4 10-53 competition); format: binding; conditions: fluorescence polarization; read-out: beta-Catenin FP IC50
T2 construct: 10 nM full-length beta-Catenin (Uniprot ID P35222)
T2 sequence (P35222 1-781): T1 sequence (P35222 1-781)

Row | SMILES | IC50 [1] | IC50 [2]
1 | CC(=O)N1CCC[C@]12CCCCCCC1(CCCCCCCCOC(=O)N3CC[C@@](C(=O)N[C@@H](Cc4ccccc4C)C(=O)N[C@@H](Cc4csc5ccccc45)C(=O)N[C@@H](CCC(N)=O)C(N)=O)(C3)NC(=O)[C@H](CC(C)C)NC(=O)[C@H](Cc3ccccc3)NC(=O)[C@H](C)NC(=O)[C@H](C)NC(=O)[C@H](CN(CC(=O)O)CC(F)(F)F)NC(=O)[C@H](CC(=O)O)NC1=O)NC(=O)[C@H](CC(C)(C)C)NC(=O)[C@H](CC(=O)O)NC2=O (stereo partly drawn) [I-1726, Ac-PL3-Asp-Npg-B5-Asp-TfeGA-Ala-Ala-Phe-Leu-PyrS2-2MeF-BztA-Gln-NH2] | > 20 µM | 0.274 µM
2 | CC(=O)N1CCC[C@]12CC=CCCCC1(CCCC=CCCCOC(=O)N3CC[C@@](C(=O)N[C@@H](Cc4ccsc4)C(=O)N[C@@H](Cc4csc5ccccc45)C(=O)N[C@@H](CCC(N)=O)C(N)=O)(C3)NC(=O)[C@H](CC(C)C)NC(=O)[C@H](Cc3ccccc3)NC(=O)[C@H](C)NC(=O)[C@H](C)NC(=O)[C@H](CNCC(=O)O)NC(=O)[C@H](CC(=O)O)NC1=O)NC(=O)[C@H](CC(C)(C)C)NC(=O)[C@H](CC(=O)O)NC2=O (stereo partly drawn) [I-1731, Ac-PL3-Asp-Npg-B5-Asp-GA-Ala-Ala-Phe-Leu-PyrS2-3Thi-BztA-Gln-NH2] | 29.5 µM | 0.025 µM
3 | CC(=O)N1CCC[C@]12CC=CCCCC1(CCCC=CCCCOC(=O)N3CC[C@@](C(=O)N[C@@H](Cc4ccsc4)C(=O)N[C@@H](Cc4csc5ccccc45)C(=O)N[C@@H](CCC(N)=O)C(N)=O)(C3)NC(=O)[C@H](CC(N)=O)NC(=O)[C@H](Cc3ccccc3)NC(=O)[C@H](C)NC(=O)[C@H](C)NC(=O)[C@H](CNCC(=O)O)NC(=O)[C@H](CC(=O)O)NC1=O)NC(=O)[C@H](CC(C)(C)C)NC(=O)[C@H](CC(=O)O)NC2=O (stereo partly drawn) [I-1732, Ac-PL3-Asp-Npg-B5-Asp-GA-Ala-Ala-Phe-Asn-PyrS2-3Thi-BztA-Gln-NH2] | > 20 µM | 0.011 µM
4 | CC(=O)N1CCC[C@]12CC=CCCCC1(CCCC=CCCCOC(=O)N3CC[C@@](C(=O)N[C@@H](Cc4ccsc4)C(=O)N[C@@H](Cc4csc5ccccc45)C(=O)N[C@@H](CCC(N)=O)C(N)=O)(C3)NC(=O)[C@H](CC(N)=O)NC(=O)[C@H](Cc3ccccc3)NC(=O)[C@H](C)NC(=O)[C@H](C)NC(=O)[C@H](CNCC(=O)O)NC(=O)[C@H](CC(=O)O)NC1=O)NC(=O)[C@H](CC(C)(C)C)NC(=O)[C@H](CC(=O)O)NC2=O (stereo partly drawn) [I-1733, Ac-PL3-Asp-Npg-B5-Asp-GA-Ala-Ala-Phe-Asn-PyrS2-3Thi-BztA-Gln-NH2] | > 20 µM | 0.015 µM
5 | CC(=O)N1CCC[C@]12CC=CCCCC1(CCCC=CCCCOC(=O)N3CC[C@@](C(=O)N[C@@H](Cc4ccsc4)C(=O)N[C@@H](Cc4csc5ccccc45)C(=O)N[C@@H](CC(C)C)C(N)=O)(C3)NC(=O)[C@H](CC(C)C)NC(=O)[C@H](Cc3ccccc3)NC(=O)[C@H](C)NC(=O)[C@H](C)NC(=O)[C@H](CN(CC(=O)O)CC(F)(F)F)NC(=O)[C@H](CC(=O)O)NC1=O)NC(=O)[C@H](CC(C)(C)C)NC(=O)[C@H](CC(=O)O)NC2=O (stereo partly drawn) [I-1747, Ac-PL3-Asp-Npg-B5-Asp-TfeGA-Ala-Ala-Phe-Leu-PyrS2-3Thi-BztA-Leu-NH2] | > 20 µM | 0.187 µM
6 | CC(=O)N1CCC[C@]12CC=CCCCC1(CCCC=CCCCOC(=O)N3CC[C@@](C(=O)N[C@@H](Cc4ccsc4)C(=O)N[C@@H](Cc4csc5ccccc45)C(=O)N[C@@H](CC(C)C)C(N)=O)(C3)NC(=O)[C@H](CC(C)C)NC(=O)[C@H](Cc3ccccc3)NC(=O)[C@H](C)NC(=O)[C@H](C)NC(=O)[C@H](CN(CC(=O)O)CC(F)(F)F)NC(=O)[C@H](CC(=O)O)NC1=O)NC(=O)[C@H](CC(C)(C)C)NC(=O)[C@H](CC(=O)O)NC2=O (stereo partly drawn) [I-1748, Ac-PL3-Asp-Npg-B5-Asp-TfeGA-Ala-Ala-Phe-Leu-PyrS2-3Thi-BztA-Leu-NH2] | 20.2 µM | 0.141 µM
7 | CC(=O)N1CCC[C@]12CC=CCCCC1(CCCC=CCCCOC(=O)N3CC[C@@](C(=O)N[C@@H](Cc4ccsc4)C(=O)N[C@@H](Cc4csc5ccccc45)C(=O)N[C@@H](Cc4ccccc4)C(N)=O)(C3)NC(=O)[C@H](CC(C)C)NC(=O)[C@H](Cc3ccccc3)NC(=O)[C@H](C)NC(=O)[C@H](C)NC(=O)[C@H](CN(CC(=O)O)CC(F)(F)F)NC(=O)[C@H](CC(=O)O)NC1=O)NC(=O)[C@H](CC(C)(C)C)NC(=O)[C@H](CC(=O)O)NC2=O (stereo partly drawn) [I-1750, Ac-PL3-Asp-Npg-B5-Asp-TfeGA-Ala-Ala-Phe-Leu-PyrS2-3Thi-BztA-Phe-NH2] | 23.7 µM | 0.104 µM

Other lines, results leading:

Row | IC50 [1] | IC50 [2] | SMILES
8 | > 20 µM | 0.057 µM | CC(=O)N1CCC[C@]12CC=CCCCC1(CCCC=CCCCOC(=O)N3CC[C@@](C(=O)N[C@@H](Cc4ccsc4)C(=O)N[C@@H](Cc4csc5ccccc45)C(=O)N[C@@H](CC(C)C)C(N)=O)(C3)NC(=O)[C@H](CC(C)C)NC(=O)[C@H](Cc3ccccc3)NC(=O)[C@H](C)NC(=O)[C@H](CCCCNC(C)C)NC(=O)[C@H](CN(CC(=O)O)CC(F)(F)F)NC(=O)[C@H](CC(=O)O)NC1=O)NC(=O)[C@H](CC(C)(C)C)NC(=O)[C@H](CC(=O)O)NC2=O (stereo partly drawn) [I-1759, Ac-PL3-Asp-Npg-B5-Asp-TfeGA-iPrLys-Ala-Phe-Leu-PyrS2-3Thi-BztA-Leu-NH2]
9 | > 20 µM | 0.032 µM | CC(=O)N1CCC[C@]12CC=CCCCC1(CCCC=CCCCOC(=O)N3CC[C@@](C(=O)N[C@@H](Cc4ccsc4)C(=O)N[C@@H](Cc4csc5ccccc45)C(=O)N[C@@H](CC(C)C)C(N)=O)(C3)NC(=O)[C@H]([C@@H](C)O)NC(=O)[C@H](Cc3ccccc3)NC(=O)[C@H](C)NC(=O)[C@H](CCCCNC(C)C)NC(=O)[C@H](CN(CC(=O)O)CC(F)(F)F)NC(=O)[C@H](CC(=O)O)NC1=O)NC(=O)[C@H](CC(C)(C)C)NC(=O)[C@H](CC(=O)O)NC2=O (stereo partly drawn) [I-1760, Ac-PL3-Asp-Npg-B5-Asp-TfeGA-iPrLys-Ala-Phe-Thr-PyrS2-3Thi-BztA-Leu-NH2]
10 | > 20 µM | 0.039 µM | CC(=O)N1CCC[C@]12CC=CCCCC1(CCCC=CCCCOC(=O)N3CC[C@@](C(=O)N[C@@H](Cc4ccsc4)C(=O)N[C@@H](Cc4csc5ccccc45)C(=O)N[C@@H](Cc4ccccc4)C(N)=O)(C3)NC(=O)[C@H](CC(C)C)NC(=O)[C@H](Cc3ccccc3)NC(=O)[C@H](C)NC(=O)[C@H](CCCCNC(C)C)NC(=O)[C@H](CN(CC(=O)O)CC(F)(F)F)NC(=O)[C@H](CC(=O)O)NC1=O)NC(=O)[C@H](CC(C)(C)C)NC(=O)[C@H](CC(=O)O)NC2=O (stereo partly drawn) [I-1761, Ac-PL3-Asp-Npg-B5-Asp-TfeGA-iPrLys-Ala-Phe-Leu-PyrS2-3Thi-BztA-Phe-NH2]
11 | > 20 µM | 0.013 µM | CC(=O)N1CCC[C@]12CC=CCCCC1(CCCC=CCCCOC(=O)N3CC[C@@](C(=O)N[C@@H](Cc4ccsc4)C(=O)N[C@@H](Cc4csc5ccccc45)C(=O)N[C@@H](Cc4ccccc4)C(N)=O)(C3)NC(=O)[C@H]([C@@H](C)O)NC(=O)[C@H](Cc3ccccc3)NC(=O)[C@H](C)NC(=O)[C@H](CCCCNC(C)C)NC(=O)[C@H](CN(CC(=O)O)CC(F)(F)F)NC(=O)[C@H](CC(=O)O)NC1=O)NC(=O)[C@H](CC(C)(C)C)NC(=O)[C@H](CC(=O)O)NC2=O (stereo partly drawn) [I-1762, Ac-PL3-Asp-Npg-B5-Asp-TfeGA-iPrLys-Ala-Phe-Thr-PyrS2-3Thi-BztA-Phe-NH2]
12 | > 20 µM | 0.052 µM | CC(=O)N1CCC[C@]12CC=CCCCC1(CCCC=CCCCOC(=O)N3CC[C@@](C(=O)N[C@@H](Cc4ccsc4)C(=O)N[C@@H](Cc4csc5ccccc45)C(=O)N[C@H](C(N)=O)C(C)C)(C3)NC(=O)[C@H](CC(C)C)NC(=O)[C@H](Cc3ccccc3)NC(=O)[C@H](C)NC(=O)[C@H](CCCCNC(C)C)NC(=O)[C@H](CN(CC(=O)O)CC(F)(F)F)NC(=O)[C@H](CC(=O)O)NC1=O)NC(=O)[C@H](CC(C)(C)C)NC(=O)[C@H](CC(=O)O)NC2=O (stereo partly drawn) [I-1763, Ac-PL3-Asp-Npg-B5-Asp-TfeGA-iPrLys-Ala-Phe-Leu-PyrS2-3Thi-BztA-Val-NH2]
13 | > 20 µM | 0.023 µM | CC(=O)N1CCC[C@]12CC=CCCCC1(CCCC=CCCCOC(=O)N3CC[C@@](C(=O)N[C@@H](Cc4ccsc4)C(=O)N[C@@H](Cc4csc5ccccc45)C(=O)N[C@H](C(N)=O)C(C)C)(C3)NC(=O)[C@H]([C@@H](C)O)NC(=O)[C@H](Cc3ccccc3)NC(=O)[C@H](C)NC(=O)[C@H](CCCCNC(C)C)NC(=O)[C@H](CN(CC(=O)O)CC(F)(F)F)NC(=O)[C@H](CC(=O)O)NC1=O)NC(=O)[C@H](CC(C)(C)C)NC(=O)[C@H](CC(=O)O)NC2=O (stereo partly drawn) [I-1764, Ac-PL3-Asp-Npg-B5-Asp-TfeGA-iPrLys-Ala-Phe-Thr-PyrS2-3Thi-BztA-Val-NH2]
